These results are taken from patent US20240368668A1, “SUBSTRATES AND BIOMARKERS OF ADAMTS7” (The Broad Institute, Inc., priority 2021, published 2024).

The test system of the first experiment is mouse ADAMTS7. As to the kind of experiment: TMT10 TAILS N-terminomics, HUVEC experiment (process replicates, trypsin/AspN digest). Conditions: HUVEC TAILS HC; log fold change of N-terminal peptide, Ad-mADAMTS7 WT over EQ. Type of experiment: cell-based, human. The text has this: ADAMTS7 Expression, Cell Culture and Preparation of the Secreted Proteins—Full-length mouse Adamts7 1-1857 (Uniprot Q68SA9, WT or E373Q catalytic mutant) with a carboxyl terminal 3xFLAG tag was used to generate custom adenoviruses as previously described. Adeno-CMV-Luciferase (Ad-Luc) from Vector Biolabs was used as a negative control. Human Coronary Artery Smooth Muscle Cells (HCA-SMC) were obtained from Lonza and expanded in Lonza SmGM-2 media in 15 cm tissue culture plates. Twenty-four hours before media collection, near confluent plates were transduced with 50 MOI adenovirus and switched to Lonza Basal SM media with volumes of 20 ml per 15 cm plate. Expression of the Flag tagged ADAMTS7 was confirmed from the media using western blot and detected using the anti-Flag M2-HRP antibody (Sigma, A8592). Collected media was processed by adding protease inhibitors (1 mM EDTA and 1 mM PMSF) and clarified by 500 g×5 min spin at 4 C to pellet cell debris. Cell media supernatants were then passed through a 0.22 um filter and kept chilled. Processed media was then concentrated 50-100× using 3 kDa Centricon Plus-70 filter unit, spun at 3,500 g×60 min at 4 C. Approximately 10% of the processed, concentrated media was set aside for total secretome proteolytic analysis. The remaining 90% of the processed, concentrated media was buffer exchanged into 50 mM HEPES pH 8.0, 150 mM NaCl (2×50 ml) using the 3 kDa Centricon Plus-70 filter unit and concentrated to >2 mg/ml to serve as input for the TAILS experiment. Secretome and TAILS input samples were stored at −80° C.
For the first experiment, referred to as SMC1, 120 ml of media from 6×15 cm dishes was pooled from each condition (Luc, WT, EQ) and processed to produce three separate inputs for the TAILS experiment. Luc, WT and EQ inputs from the SMC1 experiment were each divided into triplicate 400 ug samples to generate technical replicate TAILS data. For the second experiment, referred to as SMC2, media was processed separately in triplicate for each condition (Luc1, Luc2, Luc3, WT1, WT2, WT3, EQ1, EQ2, EQ3) using 60 ml of media from 3×15 cm dishes for each process replicate. Inputs from the SMC2 experiment used process replicates of 300 ug each to generate TAILS data. The third experiment used input from cultured Human umbilical vein endothelial cells (HUVEC) from Lifeline Cell Technology grown in VascuLife Media and transduced in Lifeline Basal EC (+bFGF2 10 ng/ml). The HUVEC experiment used the same strategy as the SMC2 experiment, with 40 ml of media from 2×15 cm dishes for each process replicate and used 200 ug each to generate TAILS data. Inputs for process replicate experiments were restricted to the lowest concentration from the 9 parallel samples for SMC2 or HUVEC.
TMT10 isotopic labeling and negative selection of non-labeled peptides-Sample preparation was performed based on the TAILS protocol from the Overall lab with some modifications. From a single experiment, nine parallel protein samples in 50 mM HEPES pH 8.0, 150 mM NaCl were separately denatured with guanidinium chloride (Sigma, G4505) to reach a final concentration of 2.5M guanidinium chloride and 250 mM HEPES and incubated at 65° C. for 15 min. Reduction was achieved through addition of tris(2-carboxylethyl) phosphine (TCEP) at a final concentration of […] and incubated at 65° C. for 45 min. Alkylation reaction was performed with addition of iodoacetamide (IAA, Sigma, A3221) to a final concentration of 10 mM IAA for 15 min at room temperature in the dark. Following denaturation, reduction and alkylation steps, ten percent of each of the nine parallel protein samples was removed and combined to serve as a pooled reference. Isobaric tags were added to free amine groups using the TMT10plex Isobaric Mass Tagging Kit (ThermoFisher, 90113) with TMT channels randomly assigned to the nine samples and TMT 131 assigned to the pooled reference. […]
In turn, “AEBP1_37 (FLEGFLSELEPEPR; listed as Homo sapiens)” gave a logFC.mWT.over.mEQ of 4.34.

For the substance “EFEMP1_124 (AVAGPEMQTGR; listed as Homo sapiens)”, the logFC.mWT.over.mEQ turned out to be 3.31.

As to “FBN1_29 (LEAGNVKETR; listed as Homo sapiens)”, the logFC.mWT.over.mEQ is 3.91.

In turn, “FLNA_1285 (LTQTGGPHVKAR; listed as Homo sapiens)” showed a logFC.mWT.over.mEQ of 3.81.

Turning to “FN1_36 (MVQPQSPVAVSQSKPGCYDNGKHYQINQQWER; listed as Homo sapiens)”, the logFC.mWT.over.mEQ is 3.45.

In the case of “FN1_40 (QSPVAVSQSKPGCYDNGKHYQINQQWER; listed as Homo sapiens)”, the logFC.mWT.over.mEQ turned out to be 2.96.

In turn, “FN1_886 (NQESTPVVIQQETTGTPR; listed as Homo sapiens)” displayed a logFC.mWT.over.mEQ of 2.04.

As to “FN1_1143 (LTPGVEYVYTIQVLR; listed as Homo sapiens)”, the logFC.mWT.over.mEQ is on record as 3.68.

As to “FN1_1656 (SSSPVTGYR; listed as Homo sapiens)”, the logFC.mWT.over.mEQ was found to be 1.63.

Consider “HSPG2_2331 (ANLAYPAGSTQPIR; listed as Homo sapiens)”, for which the logFC.mWT.over.mEQ is reported as 1.73.

With “IGFBP7_101 (AAGGPGVSGVCVCKSR; listed as Homo sapiens)”, the logFC.mWT.over.mEQ was determined as 1.89.

Turning to “LOXL2_37 (FQQPAPEYHQPQAPANVAKIQLR; listed as Homo sapiens)”, the logFC.mWT.over.mEQ is reported as 3.48.

Substance “LOX_124 (WFQAGYSTSR; listed as Homo sapiens)” returned a logFC.mWT.over.mEQ of 3.35.

“LTBP1_393 (LTATNFR; listed as Homo sapiens)” had a logFC.mWT.over.mEQ of 3.33.

Still in this experiment, the particulars now being: HUVEC experiment; log fold change, mouse ADAMTS7 WT over EQ.
In the case of “EFEMP1_125 (VAGPEMQTGR; listed as Homo sapiens)”, the “HUVEC logFC.mWT.over.mEQ” value was determined as 2.45.

As to “FN1_886 (NQESTPVVIQQETTGTPR; listed as Homo sapiens)”, the “HUVEC logFC.mWT.over.mEQ” value was 3.68.

For “HSPG2_275 (LLPGSVR; listed as Homo sapiens)”, the “HUVEC logFC.mWT.over.mEQ” value is reported as 0.77.
